Calls of active or inactive are those of the source.
Key:
[1] = target: Dual specificity protein phosphatase 3 (Homo sapiens, UniProt P51452); assay: VHR1 inhibitor Ki determination, SAR follow-up, biochemical, colorimetric (AID 2004)
[2] = NIH-3T3 fibroblast cytotoxicity, dose response, cytotoxicity control, cell-based, fluorescence, Alamar Blue, secondary assay (AID 2327); format: functional;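 further: NIH-3T3 mouse fibroblasts cultured with fluconazole at 8 µg/mL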
cells [3] = format: functional, cell-based
[4] = C. albicans growth with fluconazole, confirmation, fluorescence, retest (AID 2467); format: functional, cell-based
cells [5] = format: functional, cell-based; remark: listed apart in the source
[6] = Luminescence Cell-Based Dose Retest to Confirm Inhibitors of Cancer Stem Cells. [Related pubchem assays (depositor defined):AID2717, AID2721]; format: functional; details: Homo sapiens
[7] = target: Cyclin-dependent kinase 5/CDK5 activator 1 (Homo sapiens, UniProt Q00535); assay: CDK5/p35 kinase inhibitors, dose response, biochemical, cherry-picked samples, set 2 (AID 504545)
Cyclin-dependent kinase 5/CDK5 activator 1, sequence (Q00535 whole entry): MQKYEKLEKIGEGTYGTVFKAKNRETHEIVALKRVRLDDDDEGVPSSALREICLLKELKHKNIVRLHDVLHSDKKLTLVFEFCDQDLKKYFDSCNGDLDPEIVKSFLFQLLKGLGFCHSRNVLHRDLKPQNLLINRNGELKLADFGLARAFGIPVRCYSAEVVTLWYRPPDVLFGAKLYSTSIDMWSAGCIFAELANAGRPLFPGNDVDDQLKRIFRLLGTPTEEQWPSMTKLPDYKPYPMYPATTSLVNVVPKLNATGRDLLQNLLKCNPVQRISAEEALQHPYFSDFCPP
Cyclin-dependent kinase 5/CDK5 activator 1, sequence (Q15078 whole entry, further chain): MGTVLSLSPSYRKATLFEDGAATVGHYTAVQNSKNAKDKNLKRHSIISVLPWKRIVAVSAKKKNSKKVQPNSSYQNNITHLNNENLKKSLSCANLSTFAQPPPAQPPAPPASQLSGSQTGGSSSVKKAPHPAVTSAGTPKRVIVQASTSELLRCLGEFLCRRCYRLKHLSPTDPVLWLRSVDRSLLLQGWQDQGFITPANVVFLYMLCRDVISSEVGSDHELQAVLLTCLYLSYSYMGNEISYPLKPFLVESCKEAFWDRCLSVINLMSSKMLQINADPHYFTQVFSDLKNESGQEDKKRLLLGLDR

[8] = target: T1, Replicative DNA helicase DnaB (Mycobacterium tuberculosis, UniProt P9WMR3); assay: DnaB intein splicing inhibitors, dose response, biochemical, cell-free fluorescence (AID 449749); format: functional
T1 sequence (P9WMR3 whole entry): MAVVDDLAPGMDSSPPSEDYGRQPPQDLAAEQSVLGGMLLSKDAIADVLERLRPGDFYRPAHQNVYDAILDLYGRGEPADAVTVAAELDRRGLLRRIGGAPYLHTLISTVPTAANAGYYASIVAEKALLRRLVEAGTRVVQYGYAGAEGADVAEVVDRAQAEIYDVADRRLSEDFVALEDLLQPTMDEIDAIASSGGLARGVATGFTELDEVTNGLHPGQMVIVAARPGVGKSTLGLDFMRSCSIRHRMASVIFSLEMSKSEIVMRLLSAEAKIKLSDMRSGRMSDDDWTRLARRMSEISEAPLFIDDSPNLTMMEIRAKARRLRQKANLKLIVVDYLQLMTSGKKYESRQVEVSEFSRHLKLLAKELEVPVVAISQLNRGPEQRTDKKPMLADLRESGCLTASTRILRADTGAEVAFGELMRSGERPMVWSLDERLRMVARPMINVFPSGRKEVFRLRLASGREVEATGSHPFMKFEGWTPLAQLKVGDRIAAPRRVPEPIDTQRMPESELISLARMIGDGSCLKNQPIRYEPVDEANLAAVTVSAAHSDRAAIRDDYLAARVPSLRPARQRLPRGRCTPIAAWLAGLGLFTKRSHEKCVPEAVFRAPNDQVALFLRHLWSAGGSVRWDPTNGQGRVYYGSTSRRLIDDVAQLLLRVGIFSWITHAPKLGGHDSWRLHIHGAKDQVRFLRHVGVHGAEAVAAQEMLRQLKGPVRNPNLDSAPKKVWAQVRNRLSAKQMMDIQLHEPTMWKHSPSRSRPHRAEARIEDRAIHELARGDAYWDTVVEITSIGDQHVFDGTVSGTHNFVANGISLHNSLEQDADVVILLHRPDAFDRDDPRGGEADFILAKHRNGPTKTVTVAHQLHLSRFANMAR

Protein RecA = target: T2, Protein RecA (Mycobacterium tuberculosis, UniProt P9WHJ3); assay: Fluorescence Cell-Free Homogeneous Dose Retest to Identify Inhibitors of RecA-Intein Splicing Activity. [Related pubchem assays (depositor defined):AID2097, AID2223, AID489010, AID492950]; format: functional
T2 sequence (P9WHJ3 whole entry): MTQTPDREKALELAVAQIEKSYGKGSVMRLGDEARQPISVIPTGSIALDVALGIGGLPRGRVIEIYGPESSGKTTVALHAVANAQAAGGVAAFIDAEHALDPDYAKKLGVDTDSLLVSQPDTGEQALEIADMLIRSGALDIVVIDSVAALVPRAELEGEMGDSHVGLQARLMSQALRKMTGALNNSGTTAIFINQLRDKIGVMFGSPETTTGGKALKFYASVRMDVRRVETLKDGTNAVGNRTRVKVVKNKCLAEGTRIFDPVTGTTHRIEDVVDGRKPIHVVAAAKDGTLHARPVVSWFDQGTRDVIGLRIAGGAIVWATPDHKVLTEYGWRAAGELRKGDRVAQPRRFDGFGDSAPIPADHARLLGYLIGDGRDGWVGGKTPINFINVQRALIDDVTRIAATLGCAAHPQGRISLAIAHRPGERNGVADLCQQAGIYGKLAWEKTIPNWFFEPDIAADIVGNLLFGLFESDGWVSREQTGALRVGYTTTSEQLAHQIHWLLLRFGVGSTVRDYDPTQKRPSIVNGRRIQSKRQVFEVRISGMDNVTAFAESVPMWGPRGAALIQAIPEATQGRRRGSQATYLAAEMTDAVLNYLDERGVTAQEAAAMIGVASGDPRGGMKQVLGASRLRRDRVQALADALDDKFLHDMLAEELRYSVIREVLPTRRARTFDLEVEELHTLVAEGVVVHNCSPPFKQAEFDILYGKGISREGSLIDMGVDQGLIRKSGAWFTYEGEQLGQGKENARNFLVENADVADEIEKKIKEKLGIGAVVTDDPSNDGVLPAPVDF

[9] = target: Dual specificity tyrosine-phosphorylation-regulated kinase 1A (Rattus norvegicus, UniProt Q63470); format: biochemical, Homo sapiens
[10] = HeLa cell cytotoxicity, dose response, cytotoxicity control for MgcRacGAP inhibitor project (AID 624300); format: functional
[11] = target: T3, Rac GTPase-activating protein 1 (Homo sapiens, UniProt Q9H0H5); assay: MgcRacGAP GTPase-activating activity inhibitors, confirmation, biochemical, ADP Hunter fluorescence, primary and confirmatory (AID 624330); format: functional
T3 sequence (Q9H0H5 whole entry): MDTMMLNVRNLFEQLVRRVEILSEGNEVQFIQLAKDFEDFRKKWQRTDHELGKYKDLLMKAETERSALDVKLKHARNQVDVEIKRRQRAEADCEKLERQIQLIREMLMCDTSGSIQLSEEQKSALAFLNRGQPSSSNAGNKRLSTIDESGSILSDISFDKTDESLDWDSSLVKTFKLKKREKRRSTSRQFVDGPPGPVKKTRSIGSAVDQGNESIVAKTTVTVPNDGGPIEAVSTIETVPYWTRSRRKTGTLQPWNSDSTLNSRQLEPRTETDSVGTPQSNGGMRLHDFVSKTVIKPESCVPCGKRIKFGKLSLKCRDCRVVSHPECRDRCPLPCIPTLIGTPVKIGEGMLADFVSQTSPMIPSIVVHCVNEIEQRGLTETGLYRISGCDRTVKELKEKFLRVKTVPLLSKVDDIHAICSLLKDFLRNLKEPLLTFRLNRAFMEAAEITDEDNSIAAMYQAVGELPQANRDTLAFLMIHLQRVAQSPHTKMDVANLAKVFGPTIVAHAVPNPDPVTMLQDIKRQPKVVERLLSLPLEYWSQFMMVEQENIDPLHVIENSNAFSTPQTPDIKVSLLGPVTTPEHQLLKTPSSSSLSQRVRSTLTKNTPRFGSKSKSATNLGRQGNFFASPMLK

Dual specificity protein phosphatase 3, sequence (P51452 whole entry): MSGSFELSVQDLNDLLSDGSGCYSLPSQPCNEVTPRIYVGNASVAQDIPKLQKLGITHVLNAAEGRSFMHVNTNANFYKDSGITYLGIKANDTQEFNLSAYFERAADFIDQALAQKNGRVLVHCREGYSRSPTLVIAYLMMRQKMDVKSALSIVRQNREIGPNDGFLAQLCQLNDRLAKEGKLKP

SMILES	Ki [1]	EC50 [2]	EC50 (cells [3])	EC50 [4]	EC50 (cells [5])	AC50 [6]	AC50 [7]	AC50 [8]	EC50 (Protein RecA)	AC50 [9]	CC50 [10]	IC50 [11]
Fc1c(F)c(C(F)(F)F)c(F)c(F)c1Oc1cccc2cccnc12	122 µM (inactive)											
Oc1ccc(/C=N/Nc2ccc(C(F)(F)F)cn2)c(O)c1		> 150 µM (inactive)	27.7 µM (active)	> 38 µM (not active)	44.7 µM (active)	8.01 µM (active)	11.8 µM (active)	81.4 µM (active)	110 µM (inconclusive)	5.23 µM (active)	100 µM (active)	37 µM (active)

From ChEMBL document CHEMBL1201862, “PubChem BioAssay data set” (2004)
